Assay [1] has as its system carrageenan rat paw edema. Nature of the assay: Carrageenan Rat Paw Edema Test. Type of assay: in vivo, Male Sprague-Dawley rats. The note with it: for ED35: 4 h, oral, by regression analysis, read-out: ID35; for inhibition in vivo at 100 mg/kg: po, 100 mg/kg P.O., paw volume 4 h after carrageenan, vs control group, read-out: Percent Inhibiton at 100 mg/kg dose P.O. As to the method:
Carrageenan Rat Paw Edema Test
Male Sprague-Dawley rats (Charles River Laboratories) are weighed and food fasted overnight. The animals are then divided into four to six groups of six animals each according to body weights (average about 145 g) so that each group has about the same average body weight (within 10 g).
The following morning animals are dosed with the test compound and then placed in individual cages. For oral dosing, the drug is suspended in 0.5% methyl cellulose with 2% Tween 80, and delivered via stomach tube in a 5 ml volume.
Paw volumes (0 time) are determined on both hind paws with a mercury displacement device equipped with a transducer and digitizer. One hour after dosing the test compound, the animals are placed in a plastic restrainer and 50 ul of a 1% (w/w) carrageenan solution in 0.9% saline is injected into the ventral surface of the left rear paw. Four hours after the carrageenan injection, the paw volumes are again determined.
The results are expressed as percent inhibition of the mean paw volume of the test group relative to the control group. Statistical differences are determined by one way analysis of variance. ID35 values are determined by regression analysis.

Assay [2] relates to oxazolone-induced inflamed mouse ear. Nature of the assay: Oxazolone-Induced Inflamed Mouse Ear Test (Ox-IMET). Format: in vivo, Adult male Cox ICR mice. The note with it: topical, 25 ul of 10% in ethanol, 24 h after challenge, vs control group, read-out: Percent Inhibition. As to the method: Oxazolone-Induced Inflamed Mouse Ear Test ("Ox-IMET")
Adult male Cox ICR mice, 25-35 g, are sensitized by applying 3% oxazolone in olive oil to the clipped abdomen of each animal using a cotton swab. One week later, the mice are challenged on the inner surface of the left ear with 3% oxazolone in aceotone. At the same time 25 ul of the test compound (10% in ethanol) is applied to the outer surface of the same ear. Twenty four hours after the challenge, the animals are sacrificed by cervical dislocation and both ears are removed. A 5 mm punch biopsy is removed from both ears and is weighed to the nearest 0.1 mg on a Cahn electrobalance. Ten animals are used per group. The study usually consists of 4 to 6 groups, of which one is a control group which is challenged on the left ear, but is not treated with a test compound. The results are expressed as percent inhibition of the swelling response compared to the control group. Statistical tests for significance between groups are made using a one way analysis of variance of the ear weight differences.

The test system of assay [3] is arachidonic acid-induced inflamed mouse ear. Put plainly: Arachidonic Acid-Induced Inflamed Mouse Ear Test. Format: in vivo, Adult male Cox ICR mice. The settings on record: for inhibition in vivo at 50 µg/ear: Mus musculus, 50 ug/ear topical, 3 hours, read-out: Percent Inhibition at 50 ug/ear topical dose; for ID50: topical, by regression analysis. As for the experimental part:
Arachidonic Acid-Induced Inflamed Mouse Ear Test
All drugs are dissolved with arachidonic acid in the vehicle. At the end of 3 hours, animals are sacrificed by cervical dislocation and both ears are removed. A 5 mm punch biopsy is removed from both ears and is weighed to the nearest 0.1 mg on a Cahn electrobalance. Ten animals are used per group. The study usually consists of 4 to 6 groups, of which one is a control group which is treated on the left ear with only arachidonic acid in the vehicle. The results are expressed as percent inhibition of the swelling response compared to the control group. Statistical tests for significance between groups are made using a one way analysis of variance of the ear weight differences. ID50 values are determined by regression analysis.

Consider `C#CC(=O)c1cc(C(C)(C)C)c(O)c(C(C)(C)C)c1` [Compound 1, 4-propynoyl-2,6-di-t-butylphenol], for which, in assay [1], the ED35 came out at 40 mg/kg and the inhibition in vivo at 100 mg/kg came to 65%.
For the molecule `C#CC(O)c1cc(C(C)(C)C)c(O)c(C(C)(C)C)c1` (stereo not drawn) [Compound 2, 4-(1'-hydroxy-2'-propynyl)-2,6-di-t-butylphenol], in assay [2], the inhibition in vivo at 10 % was 27.3%. Also, in assay [1], the ED35 worked out at 46.8 mg/kg and the inhibition in vivo at 100 mg/kg was determined as 75.6%.
As to `C#CCC(=O)c1cc(C(C)(C)C)c(O)c(C(C)(C)C)c1` [Compound 3, 4-(3'-butynoyl)-2,6-di-t-butylphenol], in assay [3], the inhibition in vivo at 50 µg/ear amounted to 61.6% and the ID50 was 22.7 ug/ear. In addition, in assay [1], the ED35 was 9.9 mg/kg and the inhibition in vivo at 100 mg/kg was found to be 66.9%.
For the molecule `C=C=CC(=O)c1cc(C(C)(C)C)c(O)c(C(C)(C)C)c1` [Compound 4, 4-butadienoyl-2,6-di-t-butylphenol], in assay [3], the inhibition in vivo at 50 µg/ear came out at 79.6% and the ID50 is 6.6 ug/ear. In addition, the inhibition in vivo at 100 mg/kg in assay [1] amounted to 64.9%.
With `C#CCCC(=O)c1cc(C(C)(C)C)c(O)c(C(C)(C)C)c1` [Compound 5, 4-(4'-pentynoyl)-2,6-di-t-butylphenol], the inhibition in vivo at 10 % in assay [2] came to 25.3%. In assay [1], the ED35 was 8.1 mg/kg and the inhibition in vivo at 100 mg/kg came to 61.3%.
For the molecule `C=CCCC(=O)c1cc(C(C)(C)C)c(O)c(C(C)(C)C)c1` [Compound 6, 4-(4'-pentenoyl)-2,6-di-t-butylphenol], the inhibition in vivo at 10 % in assay [2] turned out to be 46%. In assay [1], the ED35 worked out at 3.3 mg/kg and the inhibition in vivo at 100 mg/kg stood at 71.2%.
In the case of `C#CCC(C(=O)c1cc(C(C)(C)C)c(O)c(C(C)(C)C)c1)C(OC)OC` (stereo not drawn) [Compound 7, 4-(2'-dimethoxymethyl-4'-pentynoyl)-2,6-di-t-butylphenol], in assay [2], the inhibition in vivo at 10 % was 40.9%. Besides, in assay [1], the inhibition in vivo at 100 mg/kg was determined as 53.6%.
The matching figures for `C#CCC(C)(C)C(=O)c1cc(C(C)(C)C)c(O)c(C(C)(C)C)c1` [Compound 8, 4-(2', 2'-dimethyl-4'-pentynoyl)-2,6-di-t-butylphenol]: 38.3% and 50.4%.
For `C#CC(C)(C)CC(=O)c1cc(C(C)(C)C)c(O)c(C(C)(C)C)c1` [Compound 9, 4-(3',3'-dimethyl-4'-pentynoyl)-2,6-di-t-butylphenol], the inhibition in vivo at 10 % in assay [2] turned out to be 23.2%. In assay [1], the inhibition in vivo at 100 mg/kg is 41.7%.
Turning to `C#CC(=O)CCc1cc(C(C)(C)C)c(O)c(C(C)(C)C)c1` [Compound 10, 4-(4'-pentyn-3'-one)-2,6-di-t-butylphenol], in assay [3], the inhibition in vivo at 50 µg/ear is 64.9%. Further, in assay [1], the ED35 is 24.5 mg/kg and the inhibition in vivo at 100 mg/kg was found to be 92.2%.
Turning to `C=CCCCC(=O)c1cc(C(C)(C)C)c(O)c(C(C)(C)C)c1` [Compound 12, 4-(5'-hexenoyl)-2,6-di-t-butylphenol], in assay [2], the inhibition in vivo at 10 % was found to be 29.7%. For the same molecule, in assay [1], the ED35 amounted to 11.4 mg/kg and the inhibition in vivo at 100 mg/kg came to 59.9%.
For the molecule `C#CCCCC(O)c1cc(C(C)(C)C)c(O)c(C(C)(C)C)c1` (stereo not drawn) [Compound 14, 4-(1'-hydroxy-5'-hexynyl)-2,6-di-t-butylphenol], in assay [1], the ED35 was determined as 30 mg/kg and the inhibition in vivo at 100 mg/kg stood at 54.4%.
On to `C#CCCCCc1cc(C(C)(C)C)c(O)c(C(C)(C)C)c1` [Compound 15, 4-(5'-hexynyl)-2,6-di-t-butylphenol], for which the inhibition in vivo at 10 % in assay [2] is 39.6%. Besides, in assay [1], the ED35 worked out at 55.2 mg/kg and the inhibition in vivo at 100 mg/kg is 75.7%.
On to `C#CCCCC(=C)c1cc(C(C)(C)C)c(O)c(C(C)(C)C)c1` [Compound 16, 4-(1'-methylidene-5'-hexynyl)-2,6-di-t-butylphenol], for which the inhibition in vivo at 10 % in assay [2] was 30.3%. Moreover, in assay [1], the inhibition in vivo at 100 mg/kg worked out at 25.7%.
For the molecule `C#CC[C@H](C)CC(=O)c1cc(C(C)(C)C)c(O)c(C(C)(C)C)c1` [Compound 17, 4-((S)-(-)-3'-methyl-5'-hexynoyl)-2,6-di-t-butylphenol], the inhibition in vivo at 10 % in assay [2] turned out to be 59.5%. Moreover, in assay [1], the ED35 amounted to 4.4 mg/kg and the inhibition in vivo at 100 mg/kg worked out at 75.5%.
For `C#CC[C@@H](C)CC(=O)c1cc(C(C)(C)C)c(O)c(C(C)(C)C)c1` [Compound 18, 4-((R)-(+)-3'-methyl-5'-hexynoyl)-2,6-di-t-butylphenol], the inhibition in vivo at 10 % in assay [2] was determined as 54.5%. Further, in assay [1], the ED35 stood at 2.5 mg/kg and the inhibition in vivo at 100 mg/kg is 72%.
As for `C#CCCCC(=O)c1cc(C(C)(C)C)cc(C(C)(C)C)c1` [Compound 19, 1-(5'-hexynoyl)-3,5-di-t-butylbenzene], in assay [1], the ED35 worked out at 45.3 mg/kg and the inhibition in vivo at 100 mg/kg came to 71.7%.
As for `C#CCCCC(=O)c1cc([Si](C)(C)C)c(O)c([Si](C)(C)C)c1` [Compound 20, 4-(5'-hexynoyl)-2,6-bis-trimethylsilylphenol], in assay [1], the ED35 is 34.2 mg/kg and the inhibition in vivo at 100 mg/kg stood at 73.1%.
Take `C#CCCCC(=O)c1cc([Si](C)(C)C)cc([Si](C)(C)C)c1` [Compound 21, 1-(5'-hexynoyl)-3,5-bis-trimethylsilylbenzene]: in assay [1], the ED35 was around 90 mg/kg and the inhibition in vivo at 100 mg/kg was 41.7%.
As to `C#CCCCC(=O)c1cc(C(F)(F)F)cc(C(F)(F)F)c1` [Compound 22, 1-(5'-hexynoyl)-3,5-bis(trifluoromethyl)benzene], the inhibition in vivo at 100 mg/kg in assay [1] was 47%.
Take `C#CCCCCC(=O)c1cc(C(C)(C)C)c(O)c(C(C)(C)C)c1` [Compound 23, 4-(6'-heptynoyl)-2,6-di-t-butylphenol]: in assay [1], the ED35 was determined as 17.4 mg/kg and the inhibition in vivo at 100 mg/kg worked out at 67.9%.
For the molecule `C#CCCC(=O)CCc1cc(C(C)(C)C)c(O)c(C(C)(C)C)c1` [Compound 24, 4-(6'-heptyn-3'-one)-2,6-di-t-butylphenol], the inhibition in vivo at 10 % in assay [2] stood at 38.2%.
As to `C#CCC(CC#C)C(=O)CCc1cc(C(C)(C)C)c(O)c(C(C)(C)C)c1` [Compound 25, 4-(4'-(2"-propynyl)-6'-heptyn-3'-one)-2,6-di-t-butylphenol], the inhibition in vivo at 10 % in assay [2] amounted to 40.4%.
As to `C#CCCCCCC(=O)c1cc(C(C)(C)C)c(O)c(C(C)(C)C)c1` [Compound 26, 4-(7'-octynoyl)-2,6-di-t-butylphenol], in assay [1], the ED35 worked out at 110 mg/kg and the inhibition in vivo at 100 mg/kg was found to be 43.3%.
Turning to `C=CCCC(=O)/C=C/c1cc(C(C)(C)C)c(O)c(C(C)(C)C)c1` [Compound 28, 4-((E)-1',6'-heptadiene-3'-one)-2,6-di-t-butylphenol], in assay [2], the inhibition in vivo at 10 % worked out at 37.4%.
For the molecule `COC(CC(=O)c1cc(C(C)(C)C)c(O)c(C(C)(C)C)c1)OC` [Compound 29, 4-(3',3'-dimethoxypropionyl)-2,6-di-t-butylphenol], in assay [1], the ED35 was 28.2 mg/kg and the inhibition in vivo at 100 mg/kg turned out to be 70.7%.
Consider `CCOC(CC(=O)c1cc(C(C)(C)C)c(O)c(C(C)(C)C)c1)OCC` [Compound 31, 4-(3',3'-diethoxypropionyl)-2,6-di-t-butylphenol], for which, in assay [3], the inhibition in vivo at 50 µg/ear amounted to 82.8% and the ID50 is 15.3 ug/ear.
Take `CC(C)(C)c1cc(C(=O)CC2OCCS2)cc(C(C)(C)C)c1O` (stereo not drawn) [Compound 32, 4-(2'-(1",3"-oxathiolane)acetyl)-2,6-di-t-butylphenol]: the inhibition in vivo at 10 % in assay [2] came to 44.5%. Besides, in assay [1], the inhibition in vivo at 100 mg/kg was determined as 50.8%.
Consider `COC(Cc1cc(C(C)(C)C)c(O)c(C(C)(C)C)c1)OC` [Compound 33, 4-(2',2'-dimethoxyethyl)-2,6-di-t-butylphenol], for which, in assay [2], the inhibition in vivo at 10 % is 54.1%.
With `COC(CC(=O)CCc1cc(C(C)(C)C)c(O)c(C(C)(C)C)c1)OC` [Compound 34, 4-(5',5'-dimethoxy-3'-pentanone)-2,6-di-t-butylphenol], in assay [1], the inhibition in vivo at 100 mg/kg is 66.1%.
The same measure, in the same setting: then `C#CCC(C)(C)CC(=O)c1cc(C(C)(C)C)c(O)c(C(C)(C)C)c1` [Compound 35, 4-(3',3'-dimethyl-5'-hexynoyl)-2,6-di-t-butylphenol], with 61.1%.

For the origin of these results see patent publication US4708966A, “Novel anti-inflammatory agents, pharmaceutical compositions and methods for reducing inflammation” (The Procter & Gamble Company, priority 1986, dated 1987).
